Experimental findings from patent publication US20110021483A1, “Platinum (IV) Complexes” (PLATCO TECHNOLOGIES (PROPRIETARY) LIMITED, priority 2007, published 2011) are described below.

In one data set the test system is HT29 cancer cells. Nature of the data set: Anticancer activity, IC50 from dose response curves, HT29 cells. The settings on record: concentrations 100, 50, 25, 10, 5 and 1 μM. The format is cell-based.
The next data set has as its system Hela cancer cells. Nature of the data set: Anticancer activity, IC50 from dose response curves, HeLa cells. The format is cell-based. The settings on record: concentrations 100, 50, 25, 10, 5 and 1 μM.
The test system of the next data set is MCF7 cancer cells. Nature of the data set: Anticancer activity, IC50 from dose response curves, MCF7 cells. The format is cell-based. The settings on record: concentrations 100, 50, 25, 10, 5 and 1 μM.
The nature of the next data set: physchem. The settings on record: water.
For another data set, the system named is MCF7 cells. Nature of the data set: Percent inhibition of MCF7 cells at single concentration, 48 h. It is filed as cell-based.
The next data set has as its system HeLa cells. Description: Percent inhibition of HeLa cells at single concentration, 48 h. The format is cell-based. The protocol:
The anticancer activity of cis-diammineoxalatochloronitroplatinum(IV) (complex I-A) has been compared to cisplatin against two cell lines for 48 h at 77 uM.

A short description of data set [1]: Thermal stability of the solid complex. The format is physicochemical.
A short description of data set [2]: Stability: reduction by cysteine followed by positive ion mass spectra. The format is physicochemical. The conditions noted are these: water/37° C./18 h, presence of cysteine. The source says: This observation implies that certain platinum(IV) complexes described herein are capable of converting to their corresponding platinum(II) complexes.

The term IC50 denotes the concentration that gives 50% inhibition. Usually solubility stands for the dissolved amount per volume that the medium holds.

The structures appear in SMILES notation.

Protocol for HT29 cancer cells: (§1) All Dose response curves were prepared for each of the chosen complexes, as well as positive controls, in order to obtain IC50 values. The concentrations used were 100, 50, 25, 10, 5 and 1 μM. IC50 values were calculated from the log-dose response curves using GraphPad Prism 4.
Protocol for Hela cancer cells: as §1
Protocol for MCF7 cancer cells: as §1

As to `O=C1[O][Pt-2]2([NH2+]C3CCCC[C@H]3[NH2+]2)[O]C1=O` (stereo in doubt) [Oxaliplatin, (trans-l-1,2-diaminocyclohexane)oxalatoplatinum(II)], the IC50 with HT29 cancer cells was 12.3 µM; in the data set on Hela cancer cells it was 11.9 µM; with MCF7 cancer cells, 6.21 µM.
In turn, `[NH2][Pt]1([NH2])([Cl])([N+](=O)[O-])[O]C(=O)C(=O)[O]1` [I-A, cis-diammineoxalatochloronitroplatinum(IV)] registered a solubility in the data set “physchem” of 2400 µg/mL.
In the case of `N.N.[Cl][Pt][Cl]` [Cisplatin, cisplatin], the results for the “Percent inhibition of MCF7 cells” value with MCF7 cells (48 h at 50 uM) and in the data set with MCF7 cells (48 h at 77 uM) were 72% and 76%, respectively. For the same compound, the results for the “Percent inhibition of HeLa cells” value in the data set with HeLa cells (48 h at 50 uM) and in the data set on HeLa cells (48 h at 77 uM) were 86% and 87%, respectively. The IC50 with HT29 cancer cells was 8.11 µM; with Hela cancer cells, 10.7 µM; with MCF7 cancer cells it was 14.1 µM.
Take `NC1CCCCC1N.O=C([O-])C(=O)[O-].O=N[O-].[Cl-].[Pt+4]` (stereo not drawn) [II-A, (trans-l-1,2-diaminocyclohexane)oxalatochloronitro-platinum(IV)]: the results for the IC50 in the data set with HT29 cancer cells, with Hela cancer cells and in the data set on MCF7 cancer cells were 3.07 µM, 4.81 µM and 5.86 µM, respectively. In addition, the “Solid complex stable up to (temperature)” value in data set [1] was “up to 210 °C”. In addition, the “Reduction to platinum(II) complex upon addition of cysteine” value in data set [2] was “oxaliplatin is formed”.
